Activity calls are given as the source filed them.
How the values were obtained:
[1] = target: T1, Cytochrome c1, heme protein, mitochondrial (Homo sapiens, UniProt P08574)
T1 sequence (P08574 whole entry): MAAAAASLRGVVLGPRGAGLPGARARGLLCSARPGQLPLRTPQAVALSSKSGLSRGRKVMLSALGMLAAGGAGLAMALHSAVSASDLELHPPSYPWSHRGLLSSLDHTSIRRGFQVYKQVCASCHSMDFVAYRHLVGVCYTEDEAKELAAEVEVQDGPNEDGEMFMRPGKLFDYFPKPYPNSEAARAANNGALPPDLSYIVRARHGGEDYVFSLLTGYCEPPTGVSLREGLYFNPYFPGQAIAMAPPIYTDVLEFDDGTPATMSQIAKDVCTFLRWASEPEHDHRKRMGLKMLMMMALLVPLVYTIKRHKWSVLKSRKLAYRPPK

[2] = target: T2, ATP-dependent 6-phosphofructokinase, platelet type (Homo sapiens, UniProt Q01813)
T2 sequence (Q01813 whole entry): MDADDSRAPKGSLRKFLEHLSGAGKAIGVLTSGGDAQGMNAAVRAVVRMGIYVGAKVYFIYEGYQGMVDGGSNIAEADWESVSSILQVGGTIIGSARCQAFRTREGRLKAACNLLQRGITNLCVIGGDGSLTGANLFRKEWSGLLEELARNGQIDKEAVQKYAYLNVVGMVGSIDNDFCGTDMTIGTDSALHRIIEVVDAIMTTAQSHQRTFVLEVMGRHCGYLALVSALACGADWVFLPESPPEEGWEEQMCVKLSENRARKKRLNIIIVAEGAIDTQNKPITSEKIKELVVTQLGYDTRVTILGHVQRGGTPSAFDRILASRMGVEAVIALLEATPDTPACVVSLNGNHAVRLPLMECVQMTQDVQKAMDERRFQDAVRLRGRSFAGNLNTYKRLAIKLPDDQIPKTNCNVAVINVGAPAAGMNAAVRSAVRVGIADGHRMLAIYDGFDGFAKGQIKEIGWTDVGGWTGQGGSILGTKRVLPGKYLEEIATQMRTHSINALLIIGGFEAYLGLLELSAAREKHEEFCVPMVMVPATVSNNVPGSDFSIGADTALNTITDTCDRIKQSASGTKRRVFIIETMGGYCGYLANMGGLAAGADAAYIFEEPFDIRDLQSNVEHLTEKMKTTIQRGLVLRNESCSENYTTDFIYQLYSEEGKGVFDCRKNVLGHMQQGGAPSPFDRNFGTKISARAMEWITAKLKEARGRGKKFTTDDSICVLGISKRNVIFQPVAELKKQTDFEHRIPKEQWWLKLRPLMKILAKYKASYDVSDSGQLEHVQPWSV

[3] = target: Maternal embryonic leucine zipper kinase (Homo sapiens, UniProt Q14680)
[4] = target: T3, Heme oxygenase 2 (Homo sapiens, UniProt P30519)
T3 sequence (P30519 whole entry): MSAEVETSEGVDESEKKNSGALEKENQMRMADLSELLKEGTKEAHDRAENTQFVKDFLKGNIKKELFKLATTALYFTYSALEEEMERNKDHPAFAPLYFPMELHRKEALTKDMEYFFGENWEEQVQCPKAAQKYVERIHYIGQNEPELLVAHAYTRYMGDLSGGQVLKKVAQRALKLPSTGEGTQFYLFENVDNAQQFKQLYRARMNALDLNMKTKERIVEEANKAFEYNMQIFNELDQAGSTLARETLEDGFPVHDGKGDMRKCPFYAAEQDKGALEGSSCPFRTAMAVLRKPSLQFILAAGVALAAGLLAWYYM

[5] = target: T4, Tyrosine--tRNA ligase, cytoplasmic (Homo sapiens, UniProt P54577)
T4 sequence (P54577 whole entry): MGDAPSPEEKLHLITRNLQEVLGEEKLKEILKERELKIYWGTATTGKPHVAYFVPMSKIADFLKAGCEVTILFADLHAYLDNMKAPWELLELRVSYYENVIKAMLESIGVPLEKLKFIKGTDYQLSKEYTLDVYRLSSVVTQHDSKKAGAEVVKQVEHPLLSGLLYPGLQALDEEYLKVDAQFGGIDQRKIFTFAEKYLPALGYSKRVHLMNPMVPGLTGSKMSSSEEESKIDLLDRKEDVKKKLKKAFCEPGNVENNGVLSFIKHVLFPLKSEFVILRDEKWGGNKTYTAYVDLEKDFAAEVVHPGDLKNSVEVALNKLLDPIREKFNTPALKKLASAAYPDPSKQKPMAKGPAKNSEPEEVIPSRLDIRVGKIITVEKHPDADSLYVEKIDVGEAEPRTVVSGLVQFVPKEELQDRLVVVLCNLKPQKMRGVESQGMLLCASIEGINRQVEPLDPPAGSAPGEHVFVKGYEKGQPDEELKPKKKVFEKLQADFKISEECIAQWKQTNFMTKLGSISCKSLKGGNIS

[6] = target: T5, Delta(24)-sterol reductase (Homo sapiens, UniProt Q15392)
T5 sequence (Q15392 whole entry): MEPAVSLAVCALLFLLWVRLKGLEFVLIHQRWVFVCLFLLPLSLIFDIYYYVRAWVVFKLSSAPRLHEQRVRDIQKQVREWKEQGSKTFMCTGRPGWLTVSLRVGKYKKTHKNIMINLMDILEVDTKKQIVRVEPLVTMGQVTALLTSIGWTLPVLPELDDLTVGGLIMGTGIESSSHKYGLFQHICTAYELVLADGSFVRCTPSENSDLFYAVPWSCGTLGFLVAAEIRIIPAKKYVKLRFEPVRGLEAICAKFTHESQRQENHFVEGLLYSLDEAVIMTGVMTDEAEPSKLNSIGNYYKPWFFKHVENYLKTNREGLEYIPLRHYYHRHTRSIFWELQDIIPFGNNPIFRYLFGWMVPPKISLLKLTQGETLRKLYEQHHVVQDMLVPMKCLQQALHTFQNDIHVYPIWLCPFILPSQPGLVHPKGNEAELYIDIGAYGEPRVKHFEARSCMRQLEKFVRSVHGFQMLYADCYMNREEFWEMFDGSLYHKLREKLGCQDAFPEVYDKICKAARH
Further: in the data inactive means no Kd found up to 30 µM.

Sequence of Maternal embryonic leucine zipper kinase (Q14680 whole entry): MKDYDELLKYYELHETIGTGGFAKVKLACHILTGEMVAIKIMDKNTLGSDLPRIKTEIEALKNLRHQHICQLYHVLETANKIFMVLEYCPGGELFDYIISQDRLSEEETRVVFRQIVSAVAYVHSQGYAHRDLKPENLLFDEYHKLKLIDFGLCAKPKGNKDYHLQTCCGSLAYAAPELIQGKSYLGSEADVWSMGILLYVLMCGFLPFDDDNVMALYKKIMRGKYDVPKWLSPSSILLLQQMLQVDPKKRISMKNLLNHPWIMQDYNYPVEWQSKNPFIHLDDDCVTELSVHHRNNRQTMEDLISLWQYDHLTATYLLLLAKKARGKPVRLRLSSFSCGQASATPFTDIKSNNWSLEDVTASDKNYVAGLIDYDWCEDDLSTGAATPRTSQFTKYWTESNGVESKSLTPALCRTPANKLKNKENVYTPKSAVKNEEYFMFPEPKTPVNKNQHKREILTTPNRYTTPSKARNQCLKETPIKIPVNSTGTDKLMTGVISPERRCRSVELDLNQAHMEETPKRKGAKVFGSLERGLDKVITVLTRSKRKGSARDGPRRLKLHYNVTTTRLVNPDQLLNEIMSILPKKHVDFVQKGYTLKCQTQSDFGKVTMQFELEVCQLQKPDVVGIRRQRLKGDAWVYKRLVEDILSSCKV

Row | SMILES | Kd [1] | Kd [3] | Kd [4] | Kd [5] | Kd [6] | Kd [2]
1 | O=c1[nH]c([C@@H]2CCCN2)nc2c1oc1ccc(Cl)cc12 | > 30 µM (inactive) | > 30 µM (inactive) | > 30 µM (inactive) | > 30 µM (inactive) | > 30 µM (inactive) | > 30 µM (inactive)
2 | Cn1cc(-c2[nH]c3cc(NC(=O)[C@H](N)C4CCCCC4)cc4c3c2C=NNC4=O)cn1 | > 30 µM (inactive) | 45.7 µM (active) | > 30 µM (inactive) | > 30 µM (inactive) | > 30 µM (inactive) | > 30 µM (inactive)
3 | Cc1c(NC(=O)OC[C@@H]2COCCN2)cn2ncnc(Nc3ccc4c(cnn4Cc4cccc(F)c4)c3)c12 [AC-480] | > 30 µM (inactive) | > 30 µM (inactive) | > 30 µM (inactive) | > 30 µM (inactive) | > 30 µM (inactive) | > 30 µM (inactive)
4 | COc1ccc2c(OCc3nnc4ccc(-c5ccccc5)nn34)ccnc2c1 [AMG-208] | > 30 µM (inactive) | > 30 µM (inactive) | > 30 µM (inactive) | > 30 µM (inactive) | > 30 µM (inactive) | –
5 | CCN(CCCOc1ccc2c(Nc3cc(CC(=O)Nc4cccc(F)c4)n[nH]3)ncnc2c1)CCOP(=O)(O)O [BARASERTIB] | > 30 µM (inactive) | – | > 30 µM (inactive) | > 30 µM (inactive) | > 30 µM (inactive) | > 30 µM (inactive)
6 | CNC(=O)c1ccc(Nc2ncc(C(F)(F)F)c(NCc3nccnc3N(C)S(C)(=O)=O)n2)cc1 [DEFACTINIB] | > 30 µM (inactive) | – | > 30 µM (inactive) | > 30 µM (inactive) | > 30 µM (inactive) | > 30 µM (inactive)
7 | COc1cc2ncnc3c2cc1OCCCCCN(C)Cc1ccc(Br)cc1N3 [JNJ-26483327] | > 30 µM (inactive) | > 30 µM (inactive) | > 30 µM (inactive) | > 30 µM (inactive) | – | > 30 µM (inactive)
8 | C[C@]1(O)C[C@@H](c2nc(-c3ccc4ccc(-c5ccccc5)nc4c3)c3c(N)nccn32)C1 [LINSITINIB] | > 30 µM (inactive) | – | > 30 µM (inactive) | > 30 µM (inactive) | > 30 µM (inactive) | > 30 µM (inactive)
9 | N#CCNC(=O)c1ccc(-c2ccnc(Nc3ccc(N4CCOCC4)cc3)n2)cc1 [MOMELOTINIB] | > 30 µM (inactive) | – | > 30 µM (inactive) | > 30 µM (inactive) | > 30 µM (inactive) | > 30 µM (inactive)
10 | CC1(C)CNc2cc(NC(=O)c3cccnc3NCc3ccncc3)ccc21 [MOTESANIB] | > 30 µM (inactive) | – | > 30 µM (inactive) | > 30 µM (inactive) | > 30 µM (inactive) | > 30 µM (inactive)
11 | O=C(Nc1ccc(OC(F)(F)F)cc1)c1sccc1NCc1ccnc2ccccc12 [OSI-930] | > 30 µM (inactive) | > 30 µM (inactive) | > 30 µM (inactive) | > 30 µM (inactive) | > 30 µM (inactive) | –
12 | CN(c1ncccc1CNc1nc(Nc2ccc3c(c2)CC(=O)N3)ncc1C(F)(F)F)S(C)(=O)=O [PF-00562271] | > 30 µM (inactive) | – | > 30 µM (inactive) | > 30 µM (inactive) | > 30 µM (inactive) | > 30 µM (inactive)
13 | CC(C)CC(=O)Nc1[nH]nc2c1CN(C(=O)C1CCN(C)CC1)C2(C)C [PHA-793887] | > 30 µM (inactive) | – | – | > 30 µM (inactive) | > 30 µM (inactive) | > 30 µM (inactive)
14 | COc1cc(F)c(F)c(Nc2ccc(I)cc2F)c1NS(=O)(=O)C1(C[C@H](O)CO)CC1 [REFAMETINIB] | > 30 µM (inactive) | > 30 µM (inactive) | > 30 µM (inactive) | > 30 µM (inactive) | – | > 30 µM (inactive)
15 | Cn1cnc2c(F)c(Nc3ccc(Br)cc3Cl)c(C(=O)NOCCO)cc21 [SELUMETINIB] | > 30 µM (inactive) | – | > 30 µM (inactive) | > 30 µM (inactive) | > 30 µM (inactive) | > 30 µM (inactive)
16 | C=CCN(/C=C1/C(=O)O[C@H](COC)[C@@]2(C)C1=C(O)C(=O)C1=C2[C@H](OC(C)=O)C[C@]2(C)C(=O)CC[C@@H]12)CC=C [SONOLISIB] | > 30 µM (inactive) | > 30 µM (inactive) | > 30 µM (inactive) | – | > 30 µM (inactive) | –

Now from value to compound, other results behind:

Row | Kd [1] | Kd [3] | Kd [4] | Kd [5] | Kd [6] | SMILES | Kd [2]
17 | > 30 µM (inactive) | > 30 µM (inactive) | > 30 µM (inactive) | > 30 µM (inactive) | > 30 µM (inactive) | CCN1CCN(Cc2ccc(Nc3ncc(F)c(-c4cc(F)c5nc(C)n(C(C)C)c5c4)n3)nc2)CC1 [ABEMACICLIB] | > 30 µM (inactive)
18 | > 30 µM (inactive) | – | > 30 µM (inactive) | > 30 µM (inactive) | > 30 µM (inactive) | CN(C)C/C=C/C(=O)Nc1cc2c(Nc3ccc(F)c(Cl)c3)ncnc2cc1O[C@H]1CCOC1 [AFATINIB] | –
19 | > 30 µM (inactive) | – | > 30 µM (inactive) | > 30 µM (inactive) | > 30 µM (inactive) | C[C@@]1(C(=O)Nc2ccc(F)nc2)CCCN1c1nc(Nc2cc(C3CC3)n[nH]2)c2cccn2n1 [BMS-754807] | > 30 µM (inactive)
20 | > 30 µM (inactive) | – | > 30 µM (inactive) | > 30 µM (inactive) | > 30 µM (inactive) | COc1cc2c(Oc3ccc4[nH]c(C)cc4c3F)ncnc2cc1OCCCN1CCCC1 [CEDIRANIB] | > 30 µM (inactive)
21 | > 30 µM (inactive) | > 30 µM (inactive) | > 30 µM (inactive) | > 30 µM (inactive) | > 30 µM (inactive) | FC(F)(F)c1ccc(CNc2ccc(Cc3c[nH]c4ncc(Cl)cc34)cn2)cn1 [PEXIDARTINIB] | –
22 | > 30 µM (inactive) | > 30 µM (inactive) | > 30 µM (inactive) | > 30 µM (inactive) | > 30 µM (inactive) | Cn1c(=O)c(F)c(Nc2ccc(I)cc2F)c2c(=O)n(C[C@@H](O)CO)cnc21 [TAK-733] | –
23 | > 30 µM (inactive) | – | – | > 30 µM (inactive) | > 30 µM (inactive) | COc1cc2c(N3CCN(C(=O)Nc4ccc(OC(C)C)cc4)CC3)ncnc2cc1OCCCN1CCCCC1 [TANDUTINIB] | –
24 | > 30 µM (inactive) | > 30 µM (inactive) | > 30 µM (inactive) | > 30 µM (inactive) | > 30 µM (inactive) | Cc1cc(-c2cc(OC(=O)c3ccccc3)ccc2Cl)cc2nnc(Nc3ccc(OCCN4CCCC4)cc3)nc12 [TG100-801] | –
